Assay results reported in ChEMBL document CHEMBL3046710, “Synthesis and bioactivity evaluation of novel spiromesifen derivatives” (2012).
Converted amounts (≈) assume the structure as drawn. The source made the active and inactive calls. The rule behind the calls is not given here.

Experiments:
Mythimna separata [1] = experiment: Insecticidal activity against third-instar larvae of Mythimna separata (Oriental armyworm) assessed as mortality after 72 hr by spray method; format: functional
Aphis fabae [2] = experiment: Insecticidal activity against third-instar nymph of Aphis fabae (black bean aphids) assessed as mortality after 72 hr by spray method; format: functional; conditions: for LC50: Aphis fabae, 72 h
Tetranychus cinnabarinus [3] = experiment: Acaricidal activity against adult Tetranychus cinnabarinus (carmine spider mite) assessed as mortality after 72 hr by immersion method; format: functional
Mythimna separata [4] = experiment: Insecticidal activity against third-instar larvae of Mythimna separata (Oriental armyworm) assessed as mortality at 100 mg/L after 72 hr by spray method; format: functional, organism-based
Mythimna separata [5] = experiment: Insecticidal activity against third-instar larvae of Mythimna separata (Oriental armyworm) assessed as mortality at 25 mg/L after 72 hr by spray method; format: functional, organism-based
Aphis fabae [6] = experiment: Insecticidal activity against third-instar nymph of Aphis fabae (black bean aphids) assessed as mortality at 4 mg/L after 72 hr by spray method; format: functional
Mythimna separata [7] = experiment: Insecticidal activity against third-instar larvae of Mythimna separata (Oriental armyworm) assessed as mortality at 1000 mg/L after 72 hr by spray method; format: functional
Tetranychus cinnabarinus [8] = experiment: Acaricidal activity against adult Tetranychus cinnabarinus (carmine spider mite) assessed as mortality at 6.25 mg/L after 72 hr by immersion method; format: functional
Tetranychus cinnabarinus [9] = experiment: Ovolarvicidal activity against […] Tetranychus cinnabarinus (carmine spider mite) assessed as reduction in hatched eggs measured 6 days after hatching by immersion method; format: functional; conditions: for LC50: Tetranychus cinnabarinus, 144 h
Tetranychus cinnabarinus [10] = experiment: Acaricidal activity against adult Tetranychus cinnabarinus (carmine spider mite) assessed as mortality at 600 mg/L after 72 hr by immersion method; format: functional

Row | SMILES | LC50 (Mythimna separata [1]) [µg/mL] | LC50 (Aphis fabae [2]) [µg/mL] | LC50 (Tetranychus cinnabarinus [3]) [µg/mL] | also measured
1 | Cc1cc(C)c(C2=C(C(=O)c3ccccc3Cl)C3(CCCC3)OC2=O)c(C)c1 | 26 (≈ 65.8 µM) | 5 (≈ 12.7 µM) | > 600 | Activity (Mythimna separata [4]): Active; Activity (Mythimna separata [5]): inactive
2 | Cc1cc(C)c(C2=C(C(=O)c3ccc(F)cc3)C3(CCCC3)OC2=O)c(C)c1 | 101 (≈ 267 µM) | 21 (≈ 55.5 µM) | 101 (≈ 267 µM) | –
3 | CCc1c(C)cc(OC2=C(c3c(C)cc(C)cc3C)C(=O)OC23CCCC3)cc1C | > 1000 | > 500 | > 600 | –
4 | Cc1ccc(C(=O)C2=C(c3c(C)cc(C)cc3C)C(=O)OC23CCCC3)cc1 | > 1000 | > 500 | > 600 | –
5 | CCCCC(=O)C1=C(c2c(C)cc(C)cc2C)C(=O)OC12CCCC2 | 26 (≈ 76.4 µM) | 1 (≈ 2.94 µM) | 6.26 (≈ 18.4 µM) | mortality at 4 µg/mL (Aphis fabae [6]): 55.5%; mortality at 1000 µg/mL (Mythimna separata [7]): 100%
6 | CCC(=O)C1=C(c2c(C)cc(C)cc2C)C(=O)OC12CCCC2 | 101 (≈ 323 µM) | 21 (≈ 67.2 µM) | 6.26 (≈ 20 µM) | –
7 | COc1ccc(C(=O)C2=C(c3c(C)cc(C)cc3C)C(=O)OC23CCCC3)cc1 | 26 (≈ 66.6 µM) | 21 (≈ 53.8 µM) | 1 (≈ 2.56 µM) | mortality at 6.25 µg/mL (Tetranychus cinnabarinus [8]): 55.2%
8 | CCC(C)(C)C(=O)OC1=C(c2ccc(Cl)cc2Cl)C(=O)OC12CCCCC2 [SPIRODICLOFEN] | – | – | – | mortality at 4 µg/mL (Aphis fabae [6]): 0%
9 | CCCCCC(=O)C1=C(c2c(C)cc(C)cc2C)C(=O)OC12CCCC2 | 26 (≈ 73.3 µM) | 1 (≈ 2.82 µM) | 6.26 (≈ 17.7 µM) | mortality at 4 µg/mL (Aphis fabae [6]): 95.6%; LC90 (Aphis fabae [2]): 21.77 µg/mL (≈ 61.4 µM); LC90 (Tetranychus cinnabarinus [9]): 56.08 µg/mL (≈ 158 µM); LC50 (Tetranychus cinnabarinus [9]): 11.8 µg/mL (≈ 33.3 µM); Activity (Mythimna separata [4]): Active; Activity (Mythimna separata [5]): inactive; mortality at 1000 µg/mL (Mythimna separata [7]): 100%
10 | CO/N=C(/C(=O)C1=C(c2c(C)cc(C)cc2C)C(=O)OC12CCCC2)c1ccccc1 | 26 (≈ 62.3 µM) | 21 (≈ 50.3 µM) | 26 (≈ 62.3 µM) | –
11 | Cc1cc(C)c(C2=C(OC(=O)CC(C)(C)C)C3(CCCC3)OC2=O)c(C)c1 [SPIROMESIFEN] | 101 (≈ 273 µM) | 5 (≈ 13.5 µM) | 6.26 (≈ 16.9 µM) | mortality at 4 µg/mL (Aphis fabae [6]): 10.9%; LC90 (Tetranychus cinnabarinus [9]): 31.07 µg/mL (≈ 83.9 µM); LC50 (Tetranychus cinnabarinus [9]): 4.32 µg/mL (≈ 11.7 µM)
12 | Cc1cc(C)c(C2=C(C(=O)C3C(C=C(Cl)Cl)C3(C)C)C3(CCCC3)OC2=O)c(C)c1 (centres undefined) | 401 (≈ 896 µM) | 100 (≈ 224 µM) | > 600 | –
13 | C/C=C/C(=O)C1=C(c2c(C)cc(C)cc2C)C(=O)OC12CCCC2 | 101 (≈ 311 µM) | 21 (≈ 64.7 µM) | 6.26 (≈ 19.3 µM) | –
14 | CCCC(=O)C1=C(c2c(C)cc(C)cc2C)C(=O)OC12CCCC2 | 26 (≈ 79.6 µM) | 5 (≈ 15.3 µM) | 6.26 (≈ 19.2 µM) | mortality at 1000 µg/mL (Mythimna separata [7]): 100%; mortality at 600 µg/mL (Tetranychus cinnabarinus [10]): 96.6%
15 | COC1=C(c2c(C)cc(C)cc2C)C(=O)OC12CCCC2 | > 1000 | > 500 | > 600 | –
16 | Cc1cc(C)c(C2=C(C(=O)CC(C)(C)C)C3(CCCC3)OC2=O)c(C)c1 | 101 (≈ 285 µM) | 5 (≈ 14.1 µM) | 26 (≈ 73.3 µM) | –
17 | CCOC1=C(c2c(C)cc(C)cc2C)C(=O)OC12CCCC2 | > 1000 | > 500 | > 600 | –
18 | Cc1cc(C)c(C2=C(C(=O)C(c3ccc(Cl)cc3)C(C)C)C3(CCCC3)OC2=O)c(C)c1 (centres undefined) | 401 (≈ 889 µM) | 101 (≈ 224 µM) | 101 (≈ 224 µM) | –
19 | CCC(C)(C)C(=O)C1=C(c2c(C)cc(C)cc2C)C(=O)OC12CCCC2 | 101 (≈ 285 µM) | 21 (≈ 59.2 µM) | 6.26 (≈ 17.7 µM) | –
20 | Cc1cc(C)c(C2=C(C(=O)c3ccccc3C)C3(CCCC3)OC2=O)c(C)c1 | 26 (≈ 69.4 µM) | 5 (≈ 13.4 µM) | 101 (≈ 270 µM) | –
21 | C=CC(=O)C1=C(c2c(C)cc(C)cc2C)C(=O)OC12CCCC2 | 26 (≈ 83.8 µM) | 5 (≈ 16.1 µM) | 101 (≈ 325 µM) | –
22 | Cc1cc(C)c(C2=C(C(=O)/C=C/c3ccccc3)C3(CCCC3)OC2=O)c(C)c1 | 26 (≈ 67.3 µM) | 5 (≈ 12.9 µM) | 101 (≈ 261 µM) | Activity (Mythimna separata [4]): Active; Activity (Mythimna separata [5]): inactive
23 | CCOC(=O)OC1=C(c2cc(C)ccc2C)C(=O)N[C@]12CC[C@@H](OC)CC2 [SPIROTETRAMAT] | – | 5.06 (≈ 13.5 µM) | – | mortality at 4 µg/mL (Aphis fabae [6]): 37.9%; LC90 (Aphis fabae [2]): 13.56 µg/mL (≈ 36.3 µM)
24 | CCCCCCC(=O)C1=C(c2c(C)cc(C)cc2C)C(=O)OC12CCCC2 | 101 (≈ 274 µM) | 5 (≈ 13.6 µM) | 26 (≈ 70.6 µM) | –
